The compounds below were run on neutral sphingomyelinase (assay: Sphingomyelinase Assay: neutral sphingomyelinase inhibition, release of 14C-phosphocholine from 14C-sphingomyelin, U937 cell lysate). Conditions: U937 cell lysate as enzyme, 14C-sphingomyelin substrate, pH 7.5, 1 hour at 37.
Format: biochemical
Procedure: Neutral sphingomyelinase is an enzyme that cleaves sphingomyelin to yield ceramide and phosphocholine. […] After cleavage, an extraction separates the labeled, water-soluble phosphocholine from the intact substrate and the ceramide.
Cell Iysates are made by nitrogen cavitation of harvested cells in Buffer A (20 mM Tris, pH 7.4, 250 mM sucrose, 10 mM EGTA, 10 ug/ml leupeptin, 1 mM PMSF, […]). Lysates are flash frozen and stored at -40 C.
Substrate Preparation: N-methyl-^14 C-sphingomyelin (specific activity 50 mCi/mM) and phosphatidylinositol are evaporated under a stream of nitrogen and resuspended at an equimolar concentration of 0.1 mM in water with 0.5% Triton X-100. The solution is vortexed for 30 minutes and then sonicated for 30 minutes.
Sphingomyelinase Assay: The reaction mixture contains 25 ul 2X Tris Mg buffer (200 mM Tris-HCl, pH 7.5. 160 mM MgCl), 10 ul ^14 C-sphingomyelin substrate, 10 ul lysate (enzyme) and 5 ul test compound or vehicle for a final volume of 50 l. The assays are carried out in 1.5 ml microcentriftige tubes and are incubated for 1 hour at 37. The reaction is stopped with 30 l of water and 175 l chloroform/methanol (2:1, v:v). The tubes arc vortexed vigorously, centrifuged for 5 minutes in a microfuge at maximum speed and 50 l of the upper, aqueous phase is counted in a liquid scintillation counter. Alternatively, the assay may be set up in wells of a 96-well PCR plate in identical proporations to a total volume of 50 l. Then the plates are incubated at 37 C incubator for 1 hour. H2 O (30 l) is added to all plates and the plates are again incubated for 1 hour. Chloroform-methanol (2:1) is added in a volume of 175 l followed by vigorous mixing. The plates are sealed with adhesive covers and centrifuged at 3000 rpm for 10 minutes at 5 C. The plates are uncovered and 50 µl of upper, aqueous phase is transferred to a Flashplate™(NEN) scintillation proximity assay plate. The Flashplates are dried overnight, sealed, and counted using a Topcount scintillation counter.
Compounds that are antagonists of neutral sphingomyelinase are reported as a positive value for inhibition in Table 4.

| SMILES | IC50 [µM] |
| --- | --- |
| COC(=O)[C@H](CO)[N+](C)(C/C=C/c1cccc2ccccc12)C/C=C/c1cccc2ccccc12 [Compound 14] | 19 |
| O=C(O)C(CO)N(CCCc1cccc2ccccc12)CCCc1cccc2ccccc12 (centres unmarked) [Compound 23] | 89 |
| CC(C(=O)OC(C)(C)C)[N+](C)(CC=Cc1cccc2ccccc12)CC=Cc1cccc2ccccc12 (centres unmarked) [Compound 15] | 28 |
| C[C@@H](C(=O)O)N(CC#Cc1cccc2ccccc12)CC#Cc1cccc2ccccc12 [Compound 17, Alanine, N,N-Bis[3-(1-naphthalenyl)-2-propynyl]--] | 10 |

Same assay, conditions: highest concentration tested (100 uM); IC50 not determined; U937 cell lysate, 1 hour at 37

| SMILES | percentage of enzyme inhibition [%] |
| --- | --- |
| C[N+](C/C=C/c1cccc2ccccc12)(C/C=C/c1cccc2ccccc12)[C@@H](CO)C(=O)O [Compound 16] | 24 |
| O=C(O)C(CO)N(Cc1cccc2ccccc12)Cc1cccc2ccccc12 (centres unmarked) [Compound 21] | < 5 |
| COc1ccc(C#CCN(CC#Cc2ccc(OC)cc2)[C@@H](C)C(=O)O)cc1 [Compound 19] | 27 |
| C[C@@H](O)[C@@H](C(=O)O)N(C/C=C/c1cccc2ccccc12)C/C=C/c1cccc2ccccc12 [Compound 10] | 21 |
| CC(C(=O)OC(C)(C)C)N(CC=Cc1ccnc2ccccc12)CC=Cc1ccnc2ccccc12 (centres unmarked) [Compound 24] | < 5 |
| C[C@@H](C(=O)O)N(C/C=C/c1ccnc2ccccc12)C/C=C/c1ccnc2ccccc12 [Compound 13] | < 5 |
| O=C(O)C(CO)N(CC#Cc1cccc2ccccc12)CC#Cc1cccc2ccccc12 (centres unmarked) [Compound 18] | < 5 |
| CC(C(=O)O)N(Cc1cccc2ccccc12)Cc1cccc2ccccc12 (centres unmarked) [Compound 20] | < 5 |
| CC(C(=O)O)N(CCc1cccc2ccccc12)CCc1cccc2ccccc12 (centres unmarked) [Compound 25] | < 5 |
| O=C(O)C(CO)N(CCc1cccc2ccccc12)CCc1cccc2ccccc12 (centres unmarked) [Compound 22] | < 5 |
